Measurements reported in patent US8673882B2, “Inhibitors of autotaxin” (University of Tennessee Research Foundation, priority 2011, dated 2014).
Entries after “also recorded” stand apart in the source; their conditions may differ.

Legend:
[1] = system: MM1 hepatocarcinoma cells; assay: Invasion of mesothelial cell monolayer by MM1 cells; assay type: cell-based, rat; details: with LPC; FIG. 12 panel E
Description: Cancer metastasis is a complex process that cannon be accurately modeled in vitro. Models that utilize cellular monolayers for the invasion of carcinoma cell come the closest to the situation in vivo. Two different cell monolayers, mouse mesothelium and human vascular endothelium were used to examine the role of ATX in the invasion of MM1 hepatocarcinoma cells and the reduction of such invasion by the chemical compounds of the present application. The mesothelial monolayer is an accepted model for invasion of body cavities lined by serous cells whereas, the HUVEC monolayer is considered to be an in vitro model of hematogenous invasion of carcinomas.
Highly invasive MM1 cells originally isolated from the AH130 rat hepatoma cells were utilized in these studies. The cells were grown in suspension in DMEM supplemented with 10% fetal bovine serum, 2 mM glutamine, 100 units/ml penicillin and 10 μg/ml streptoinycin. Mesothelial cells were isolated and cultured from C57BL/6 mice. Human umbilical cord vascular endothelial cells (HUVEC) were obtained from VEC Technologies Inc., (Rensselaer, N.Y., USA) and were grown in MCDB-131 complete medium containing 10% fetal bovine serum. 90 μg/ml heparin, 10 ng/ml EGF, 1 μg/ml hydrocortisone, 0.2 mg/ml EndoGrowth supplement, 100 units/ml penicillin G, 100 μg/ml streptomycin and 25 μg/ml amphotericin B (all from VEC Technologies). Tumor cell invasion was performed by seeding 1.3×10^5 HUVECs (passage 7) into each well of a 12-well plate pre-coated with 0.2% gelatin (Sigma) and cultured for 2 days to form a confluent monolayer. Mesothelial cells harvested from two-three mice were initially plated in 6-well plates and grown to confluency in DMEM medium supplemented with 10% fetal bovine serum in the presence of 100 units/ml penicillin G and 10 μg/ml streptomycin. When confluent, the mesothelial cells were split into three equal aliquots (˜5×10^4 cells each) and plated to three wells of a 12-well plate and grown to confluence.
Invasion of MM1 cells of Example 53 was determined and the effect of compounds of the present application in reducing the invasion was determined. For all invasion assays, MM1 cells were pre-stained with 2 μg/ml calcein AM (Invitrogen, USA) for 2 h, rinsed once, and seeded at a density of 5×10^4 cells/well over the monolayers. […] The number of tumor cells that penetrated the monolayer was photographed under a NIKON TiU inverted microscope using phase-contrast and fluorescence illumination in a minimum of five non-overlapping fields at 100× magnification. The fluorescent images were overlayed on top of the phase contrast images using the Elements BR software (version 3.1x) and the invaded MM1 cells showing the characteristic flattened morphology in the plane of focus underneath the monolayer were counted. […]

NPP6 = target: T1, NPP6 (Homo sapiens, UniProt Q6UWR7); assay: NPP-6 inhibition assay (pNPPC substrate); assay type: biochemical; details: 10 μM compound; 8.3 nM enzyme; 10 μM pNPPC; read-out: NPP6 Activity, % control (10 μM)
T1 sequence (Q6UWR7 23-419): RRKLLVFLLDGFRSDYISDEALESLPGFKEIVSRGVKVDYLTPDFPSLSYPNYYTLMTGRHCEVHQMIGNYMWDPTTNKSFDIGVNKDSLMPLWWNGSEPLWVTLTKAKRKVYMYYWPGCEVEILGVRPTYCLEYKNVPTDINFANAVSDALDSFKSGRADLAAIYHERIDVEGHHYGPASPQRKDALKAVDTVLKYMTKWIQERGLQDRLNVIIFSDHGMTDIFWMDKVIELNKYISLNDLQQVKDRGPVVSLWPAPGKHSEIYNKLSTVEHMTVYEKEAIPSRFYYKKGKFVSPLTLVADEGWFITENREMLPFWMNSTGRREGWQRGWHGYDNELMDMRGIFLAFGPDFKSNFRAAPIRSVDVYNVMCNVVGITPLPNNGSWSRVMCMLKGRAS
Method: (§1) NPP6 and NPP7 are the only NPP isoforms other than ATX that are known to utilize lysophospholipid phosphodiesters as substrates. Therefore, the specificity of the chemical compounds of the invention regarding ATX was addressed by determining the activity of NPP6 and NPP7 in the presence and absence of these analogs.
(§2) Inhibition of NPP6 and NPP7 was evaluated using recombinant, purified proteins, the synthetic substrate para-nitrophenylphosphocholine (pNPPC) and a Synergy II plate reader (BioTek, Winooski, Vt.). The final concentration of each enzyme was 8.3 nM and pNPPC was 10 μM. All analogs were tested at single 10 μM concentrations. Absorbance of liberated para-nitrophenol at 405 nm was determined up to 1 hour (where responses were linear) and was normalized to vehicle control.

NPP7 = target: T2, NPP7 (Homo sapiens, UniProt Q6UWV6); assay: NPP-7 inhibition assay (pNPPC substrate); assay type: biochemical; details: 10 μM compound; 8.3 nM enzyme; 10 μM pNPPC; read-out: NPP7 Activity, % control (10 μM)
T2 sequence (Q6UWV6 22-458): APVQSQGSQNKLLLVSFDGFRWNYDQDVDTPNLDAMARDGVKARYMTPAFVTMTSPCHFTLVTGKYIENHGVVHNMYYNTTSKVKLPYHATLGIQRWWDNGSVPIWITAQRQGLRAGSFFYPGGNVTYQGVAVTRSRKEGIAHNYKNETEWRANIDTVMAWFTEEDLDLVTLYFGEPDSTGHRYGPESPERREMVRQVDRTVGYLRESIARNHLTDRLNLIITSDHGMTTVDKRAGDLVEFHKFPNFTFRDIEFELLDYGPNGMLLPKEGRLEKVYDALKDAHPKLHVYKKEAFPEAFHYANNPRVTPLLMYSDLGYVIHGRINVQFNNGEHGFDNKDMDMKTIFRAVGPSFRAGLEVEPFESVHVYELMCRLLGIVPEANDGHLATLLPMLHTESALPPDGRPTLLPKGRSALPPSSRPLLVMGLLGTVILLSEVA
Method: as §1, §2

## CCCCCCCCCCCCCCCc1ccc(CP(=O)(O)O)cc1 [Compound 22, 4-Pentadecylbenzylphosphonic acid]
[1]
  MM1 cell invasion of the mesothelial monolayer: inhibited; also recorded: inhibition
NPP6
  remaining activity at 10 µM: 96.5%
NPP7
  remaining activity at 10 µM: 96.7%

## CCCCCCCCCCC/C=C/c1ccc2cc(CP(=O)(O)O)ccc2c1 [Compound 30b, (E)-6-Tridec-1-enyl-naphthalen-2-yl-methylphosphonic acid]
[1]
  MM1 cell invasion of the mesothelial monolayer: inhibited
NPP6
  remaining activity at 10 µM: 104%
NPP7
  remaining activity at 10 µM: 96.5%
